Counter-ions that a name gives are not always drawn. Like-named read-outs stand apart in the source and are kept apart here.

This test relates to P3 promoter (RNAIII / delta-toxin expression). Put plainly: USA300-P3-Luc reporter screen for inhibition of RNAIII induction (P3 promoter activation by AIP). The format is cell-based, Staphylococcus aureus. The settings on record: for inhibition at 40 µM: Staphylococcus aureus; for % Inhibition: relative to positive control (USA400 inhibitory AIP supernatant). How it is done:
Staphylococcus aureus pulse-field gel electrophoresis (PFGE) type USA300 transformed with a plasmid containing the P3 promoter followed by the luciferase gene (USA300-P3-Luc) was grown in tryptic soy broth (TSB) to […] (5×10^8 CFU/mL), as determined by optical density at 600 nm, from overnight cultured bacteria and harvested via centrifugation (4,000×g, 4° C., 5 minutes). Supernatant was removed and the bacterial pellet was washed twice with an equal volume of PBS. Bacteria were suspended in PBS at 5×10^8 CFU/mL, as confirmed by plating serial dilutions onto TSB. 2×10^6 CFU washed USA300-P3-Luc was incubated with wt USA300 8-hour filtered supernatant containing stimulatory auto-inducing peptide (AIP) at a final dilution of 1:10 and 40 μM each compound in a total of 40 μL/well of TSB on a 384-well plate. The S. aureus two-component agr system induces delta-toxin expression via expression of AIP at stationary growth phase and was used to stimulate activation of the P3 promoter. Alternatively, AIP produced by a different S. aureus strain, PFGE type USA400, acts to inhibit delta-toxin expression in USA300. As a positive control, samples were incubated with USA400 8-hour filtered supernatant containing inhibitory AIP at a final dilution of 1:10 instead of test compound. Samples were incubated at 37° C. for 2 hours, then analyzed for luminescence and optical density at 600 nm. Percent Inhibition was determined by the following formula: Percent inhibition=100×(LumNo Inhibitor−Lumcompound)/(LumNo Inhibitor.−LumPositive control). Inhibitory compounds suitable for use in methods of inhibiting skin inflammation according to the disclosure were identified (Table 2) based on at least a 40% inhibition relative to the positive control, minimal reduction in growth as determined by optical density at 600 nm, and relatively low promiscuity (<10%) in relation to other high-throughput assays performed using these compounds.

Setting [1] is: 40 μM compound, 2 hours at 37° C., luminescence, relative to positive control (USA300 inhibitory AIP supernatant), read-out: % Inhibition.
The mark [2] stands for this setting: 40 μM compound, 2 hours at 37° C., luminescence.

Turning to `CC(C)c1ccc2c(c1)c(SC(C)(C)C)c(CC(C)(C)C(=O)O)n2Cc1ccc(Cl)cc1` [1H-Indole-2-propanoic acid, 1-[(4-chlorophenyl)methyl]-3-[(1,1-dimethylethyl)thio]-Alpha,Alpha-dimethyl-5-(1-methylethyl)-], under setting [1], the inhibition (as a rule, the relative decrease from the control value, in per cent) at 40 µM was 86.3%.
With `O=C(/C=C/c1ccc(O)cc1)c1ccccc1O` [2′,4-DIHYDROXYCHALCONE], the inhibition at 40 µM under setting [1] amounted to 71.9%.
As for `NCCCNCCCCNC(=O)C(NC(=O)CCCCCN=C(N)N)c1ccc(Br)cc1` (centres unmarked) [4Br-AHX], the % Inhibition (as a rule, the relative decrease from the control value, in per cent) under setting [2] is listed as 55.8%.
Consider `O=C(O)c1cc2cc(Cl)ccc2[nH]1` [5-CHLOROINDOLE-2-CARBOXYLIC ACID], for which, under setting [1], the inhibition at 40 µM was 47.8%.
In the case of `COc1ccc(CNC(=O)Nc2ncc([N+](=O)[O-])s2)cc1` [361549, GSK-3b Inhibitor VIII, GSK-3b Inhibitor VIII], under setting [2], the “% Inhibition” value turned out to be 73.7%.
Turning to `NCCOB(c1ccccc1)c1ccccc1` [AMINOETHOXYDIPHENYLBORANE], under setting [1], the inhibition at 40 µM turned out to be 82.1%.
The same measure, in the same setting: then `O=C(O)Cc1ccccc1Nc1c(Cl)cccc1Cl` [Benzeneacetic acid, 2-[(2,6-dichlorophenyl)amino]-, monosodium salt], with 65.1%; and `CC(C)c1cc2c(c(O)c1O)[C@@]1(C(=O)O)CCCC(C)(C)[C@@H]1CC2` [CARNOSIC ACID], with 95.8%.
`O=C1C(Cl)=C(Cl)C(=O)C(Cl)=C1Cl` [CHLORANIL]: under setting [1], the inhibition at 40 µM is 47.7%.
The same measure, in the same setting: the same measure for `Cc1cc(O)c2c(c1)C(=O)c1cccc(O)c1C2=O` [CHRYSOPHANOL]: 47.2%; for `COC(=O)[C@H](c1ccccc1Cl)N1CCc2sccc2C1` [CLOPIDOGREL SULFATE]: 69.4%; for `CCCc1c(OCCCCc2nnn[nH]2)ccc(C(C)=O)c1O` [CPD000058555_LY 171883, LY 171883]: 48.7%.
Still for that read-out and setting: then `O=C(c1ccc(F)cc1)C1CCN(CCn2c(=S)[nH]c3ccccc3c2=O)CC1` [CPD000466283_Altanserin, Altanserin], with 59%; and `CCOc1cc(CC(=O)N[C@@H](CC(C)C)c2ccccc2N2CCCCC2)ccc1C(=O)O` [CPD000466305_REPAGLINIDE, REPAGLINIDE], with 49%.
The same measure, in the same setting: the same measure for `COc1cc(C)c(Cc2cnc(N)nc2N)cc1OC` [CPD000466374_ORMETOPRIM, ORMETOPRIM]: 53.2%.
In the case of `CC(C)c1nc(CN(C)C(=O)N[C@H](C(=O)N[C@@H](Cc2ccccc2)C[C@H](O)[C@H](Cc2ccccc2)NC(=O)OCc2cncs2)C(C)C)cs1` [CPD000466395_RITONAVIR, RITONAVIR], the inhibition at 40 µM under setting [1] stood at 85.7%.
On to `Cc1ccsc1C(=CCCN1CCC[C@@H](C(=O)O)C1)c1sccc1C` [CPD000469176_TIAGABINE HCl, TIAGABINE HCl], for which, under setting [1], the inhibition at 40 µM was found to be 69.7%.
Turning to `C#C[C@]1(O)CC[C@H]2[C@@H]3CCC4=Cc5oncc5C[C@]4(C)[C@H]3CC[C@@]21C` [DANAZOL], the inhibition at 40 µM under setting [1] turned out to be 47.4%.
With `O=C1c2cccc(O)c2C(=O)c2c(O)cccc21` [DANTRON], under setting [1], the inhibition at 40 µM is 76.1%.
Take `CC(=O)Oc1cccc2c1C(=O)c1c(OC(C)=O)cc(C(=O)O)cc1C2=O` [DIACERIN]: the “% Inhibition” value under setting [2] turned out to be 76%.
As for `c1ccc2c(c1)sc1ccccc12` [DIBENZOTHIOPHENE], the inhibition at 40 µM under setting [1] came out at 50.7%.
Same read-out and setting: the same measure for `C/C=C(/C(=C/C)c1ccc(O)cc1)c1ccc(O)cc1` [DIENESTROL]: 90.8%; for `CN1C[C@H](C(=O)N[C@]2(C)O[C@@]3(O)[C@@H]4CCCN4C(=O)[C@H](Cc4ccccc4)N3C2=O)C[C@@H]2c3cccc4[nH]cc(c34)C[C@H]21` [DIHYDROERGOTAMINE MESYLATE]: 52.2%.
Regarding `C=C1CC[C@H](O)C/C1=C/C=C1\CCC[C@]2(C)[C@@H]([C@H](C)/C=C/[C@H](C)C(C)C)CC[C@@H]12` [ERGOCALCIFEROL], the inhibition at 40 µM under setting [1] stood at 51.9%.
As to `Cc1c(Nc2ncccc2C(=O)O)cccc1C(F)(F)F` [FLUNIXIN MEGLUMINE | BANAMINE, FLUNIXIN MEGLUMINE], the inhibition at 40 µM under setting [1] worked out at 69.2%.
Take `C=C1C[C@]23C[C@@]1(O)CC[C@H]2[C@@]12C=C[C@H](O)[C@@](C)(C(=O)O1)[C@H]2[C@@H]3C(=O)O` [G[…]]: testing at 40 µM (USA300, 2 h) gave an inhibition of 60.5%.
Consider `O=c1c(O)c(-c2ccccc2)oc2cc(O)cc(O)c12` [Galangine], for which, under setting [2], the “% Inhibition” value was found to be 79.5%.
In the case of `Oc1cc2c(cc1O)C1c3ccc(O)c(O)c3OCC1(O)C2` (centres unmarked) [HAEMATOXYLIN], under setting [1], the inhibition at 40 µM was determined as 62.9%.
On the same count and under the same terms, the same measure for `CC[C@H](c1ccc(O)cc1)[C@@H](CC)c1ccc(O)cc1` [HEXESTROL]: 99.9%.
In the case of `O=C(NC(=O)c1c(F)cccc1F)Nc1cc(Cl)c(OC(F)(F)C(F)C(F)(F)F)cc1Cl` (centres unmarked) [LUFENURON | PROGRAM, LUFENURON], the inhibition at 40 µM under setting [1] was found to be 55.8%.
Same read-out and setting: then `Cc1ccc(Nc2c(F)cccc2Cl)c(CC(=O)O)c1` [LUMIRACOXIB | PREXIGE, LUMIRACOXIB], with 60%; and `O=C(O)c1nn(Cc2ccc(Cl)cc2Cl)c2ccccc12` [Lonidamine], with 71.3%; and `CC(=O)O[C@]1(C(C)=O)CC[C@H]2[C@@H]3C=C(C)C4=CC(=O)CC[C@]4(C)[C@H]3CC[C@@]21C` [MEGESTROL ACETATE], with 46.5%.
In the case of `COC(=O)CC[C@@H](C)[C@H]1CC[C@H]2[C@@H]3CC[C@@H]4C[C@H](O)CC[C@]4(C)[C@H]3C[C@H](O)[C@]12C` [METHYL DEOXYCHOLATE], the inhibition at 40 µM under setting [1] was determined as 78.9%.
Same read-out and setting: then `CO/N=C1\C[C@]2(C[C@@H]3C[C@@H](C/C=C(\C)C[C@@H](C)/C=C/C=C4\CO[C@@H]5[C@H](O)C(C)=C[C@@H](C(=O)O3)[C@]45O)O2)O[C@H](/C(C)=C/C(C)C)[C@H]1C` [MOXIDECTIN | CYDECTIN, MOXIDECTIN], with 58.9%.
Consider `O=C(O)c1ccccc1Nc1cccc2c1C(=O)c1cccc(Nc3ccccc3C(=O)O)c1C2=O` [NCI16221], for which the “% Inhibition” value under setting [2] was 49.9%.
As to `O=C(N/N=C/c1ccc([N+](=O)[O-])o1)c1cc([N+](=O)[O-])cc([N+](=O)[O-])c1O` [NIFURSOL], under setting [1], the inhibition at 40 µM was 63.9%.
Regarding `C#C[C@]1(O)CC[C@H]2[C@@H]3CCC4=CC(=O)CC[C@@H]4[C@H]3CC[C@@]21C` [NORETHINDRONE], the inhibition at 40 µM under setting [1] was 52.4%.
In the case of `CCCC[C@@H](CC)COC(=O)C(C#N)=C(c1ccccc1)c1ccccc1` [OCTOCRYLENE | EUSOLEX, OCTOCRYLENE], under setting [2], the “% Inhibition” value is 97.9%.
Regarding `COc1ccnc(C[S+]([O-])c2nc3ccc(OC(F)F)cc3[nH]2)c1OC` (centres unmarked) [PANTOPRAZOLE | PROTONIX, PANTOPRAZOLE], the inhibition at 40 µM under setting [1] came out at 52.8%.
Take `Nc1ccc(/N=N/c2ccccc2)c(N)n1` [PHENAZOPYRIDINE HYDROCHLORIDE]: the inhibition at 40 µM under setting [1] came out at 75.5%.
With `O=C1OC(c2ccc(O)cc2)(c2ccc(O)cc2)c2ccccc21` [PHENOLPHTHALEIN], under setting [1], the inhibition at 40 µM was found to be 72.4%.
The same measure, in the same setting: then `COc1ccc(-c2c(O)c3c(OC)c4c(cc3oc2=O)OC(C)(C)C=C4)cc1` [ROBUSTIC ACID], with 96.9%.
On to `C[C@@H]1CC[C@@]2(OC1)O[C@H]1C[C@H]3[C@@H]4CC[C@@H]5C[C@@H](O)CC[C@]5(C)[C@H]4CC[C@]3(C)[C@H]1[C@@H]2C` [SMILAGENIN], for which the “% Inhibition” value under setting [2] came to 75.3%.
As to `Cc1ccc(Cl)c(Nc2ccccc2C(=O)O)c1Cl` [SODIUM MECLOFENAMATE], the inhibition at 40 µM under setting [1] came to 90.9%.
On the same count and under the same terms, the same measure for `Oc1c2ccccc2c2c3c(cccc13)N=N2` [SP 600125]: 45.3%; for `O=C(O)c1ccccc1Nc1cccc(OCc2ccc3ccccc3n2)c1` [SR 2640]: 98.7%.
On the same count and under the same terms, the same measure for `CSc1ccc(/C=C2/C(C)=C(CC(=O)O)c3cc(F)ccc32)cc1` [Sulindac Sulfide]: 72.4%.
`CCC(=O)O[C@H]1CC[C@H]2[C@@H]3CCC4=CC(=O)CC[C@]4(C)[C@H]3CC[C@]12C` [TESTOSTERONE PROPIONATE]: the inhibition at 40 µM under setting [1] worked out at 65.7%.
For `Cc1ccc(S(=O)(=O)N[C@@H](Cc2ccccc2)C(=O)CCl)cc1` [TPCK], the “% Inhibition” value under setting [2] came out at 87.8%.
Take `C[C@H](CCC(=O)O)[C@H]1CC[C@H]2[C@@H]3CC[C@@H]4CCCC[C@]4(C)[C@H]3CC[C@]12C` [URSOCHOLANIC ACID]: the inhibition at 40 µM under setting [1] came out at 61.3%.
The same measure, in the same setting: then `Oc1nc(-c2ccc(C(F)(F)F)cc2)nc2c1CSCC2` [XAV939], with 53.4%.
`Cc1cc(CC(=O)O)n(C)c1C(=O)c1ccc(Cl)cc1` [ZOMEPIRAC SODIUM]: under setting [1], the inhibition at 40 µM was 64.8%.

Source of the values: patent US12065485B2, “Treatment of staphylococcal disorders” (priority 2013, dated 2024).
